Laboratory results reported in paper PMC6382874, “Succinylation-dependent mitochondrial translocation of PKM2 promotes cell survival in response to nutritional stress” (Cell Death & Disease, 2019).
Read-outs that look alike come from different tables or passages of the source.

Tests used:
[1] = target: T1, PKM1 (Homo sapiens, UniProt P14618); test: fluorescent PK-LDH coupled assay, PKM1; assay type: biochemical; conditions: recombinant enzyme, PK-LDH coupled assay; read-out: IC50 (PKM1)
T1 construct: His-tag (N); made in house; host or cells: Escherichia coli BL21
Description: (§1) Human cDNA for PKM2, PKM1, and VDAC3 were separately cloned into a pET28a (+) and pGEX-4T-1 vector with an N-terminal His-tag and N-terminal GST-tag and purified from the Escherichia coli strain BL21 (Invitrogen) using Ni–agarose beads and GST agarose beads (Qiagen) as described previously. PKL was purchased from Sino Biological Inc. in China.
(§2) Pyruvate kinase activity was measured with a fluorescent pyruvate kinase–lactate dehydrogenase coupled assay as described previously. All compounds were tested in a kinetic mode by coupling the generation of pyruvate by pyruvate kinase to the depletion of NADH through lactate dehydrogenase. For PKM2, 40 μL of buffer (50 mM Tris–HCl, pH 7.5, 10 mM KCl, 5 mM MgCl2), 1 μL of compound and 5 μL of enzyme solution were dispensed into Corning black solid 96-well plates and incubated for 15 min. Totally, 55 μL of substrate mix (final concentration, 0.5 mM PEP, 4.0 mM ADP, 0.12 mM NADH, 0.25 mM FBP, and 1 unit LDH) were then added, and the plates were placed in a FlexStation3 (Molecular Devices), followed by determination of NADH fluorescence at 30 s exposure intervals for 3–6 min. Data were collected on a FlexStation3.

[2] = target: T2, PKL (Homo sapiens, UniProt P30613); test: fluorescent PK-LDH coupled assay, PKL; assay type: biochemical; conditions: PK-LDH coupled assay; read-out: IC50 (PKL)
T2 construct: purchased Sino Biological Inc
Description: as §1, §2

[3] = target: T3, PKM2-VDAC3 interaction (Homo sapiens, UniProt P14618); test: PKM2-VDAC3 interaction, stag pull down in HCT116 cells; assay type: cell-based; conditions: 20 µM, 8 h
T3 construct: expressed in transfected cells; host or cells: HCT116
Description: (§3) Fig. 6 Compound 8 blocks PKM2 mitochondrial translocation under nutritional stress and inhibits tumor growth in vivo. a Compound 8 blocks glucose starvation induced PKM2 mitochondrial translocation. Isolation of mitochondria and immunoblot of PKM2, tubulin and Tom 40 were carried out with or without compound 8 treatment. b Compound 8 disrupts interaction of PKM2 and VDAC3. HCT116 cells were transfected with HA-tagged PKM2, cells were harvested and subjected to stag pull down after 8 h 20 µM compound 8 treatment. c Compound 8 induces VDAC3 for degradation. cells were harvested and evaluated VDAC3 protein levels after 8 h 10 or 20 µM compound 8 treatment. d, e Compound 8 caused a decrease in the rate of NADH oxidation. After 8 h of treatment with 20 µM compound 8, HCT116 cells mitochondria were isolated for NADH oxidation assays. NAD/NADH ratios in HCT116 cell lysates were evaluated by LC–MS. f Compound 8 inhibited ATP production in HCT116 cells. g The tumor volume (n = 7) of HCT116 xenografts from mice with intraperitoneal injection of compound 8 and vehicle control
About 2.5 mg whole cellular extracts were prepared in 700 μl RIPA buffer (50 mM Tris-HCl, pH 8.0, 150 mM NaCl, 1.5 mM MgCl2, 0.1% sodium dodecyl sulfate (SDS), 0.5% deoxycholate, 0.5% NP-40, 1 mM phenylmethylsulfonyl fluoride (PMSF), 1× protease inhibitor cocktail (Roche)). […]

[4] = tested on: PKM2 mitochondrial translocation; test: PKM2 mitochondrial translocation (fractionation, western blot) in HCT116 cells; assay type: cell-based, human; conditions: 20 μM, glucose starvation, HCT116
Description: as §3
HCT116 cells were harvested and washed two times with cold PBS. Cells were then homogenized in a buffer (220 mM mannitol, 70 mM sucrose, 2 mM EGTA, 5 mM MOPS-Tris pH 7.4, 2 mM Taurine, 0.2% BSA). The homogenate was spun for 5 min at 800g.The supernatant containing the cytoplasmic and mitochondrial fractions were transferred to a fresh tube and spun for 5 min at 12,000g. The pellet contained the mitochondrial fraction and the supernatant contained the cytoplasmic fraction.
Cells were lysed in buffer containing 50 mM Tris pH8.0, 2 mM EDTA, 150 mM NaCl, 0.5% Nonidet P-40, 10% glycerol and protease inhibitor PMSF. Western blot analysis was carried out based on standard methods. The following commercial antibodies were used as probes: anti-Flag antibody (Sigma, F3165), anti-HA antibody (Sigma, H3663), anti-α-Tubulin (EasyBio, BE0026–100), anti-PKM2 (RuiYingBio, RLT3777), anti-TOM 40 (Santa Cruz sc-365467), anti-succinyllysine antibody (PTM BIO PTM-901), anti-GAPDH (SanJian).

[5] = tested on: H1299 cells; test: cell viability test, H1299; assay type: cell-based; conditions: cell viability, 48 h, read-out: IC50 (H1299)
Description: We assessed the anti-tumor effects of compound 8 by evaluation of cancer cell viability. Compound 8 reduced cell viability with an IC50 of about 5 µM in MTT reduction assays in HCT116, MCF7, and H1299 cells (Table 2). […] To determine whether cancer cell death brought about by compound 8 is PKM2 dependent, PKM2 was knocked down in HCT116 cells using two different shRNA sequences that specifically targeted exon 10 without interfering with PKM1 expression. Compound 8 is an inhibitor which causes a loss of function of PKM2. If PKM2 is a specially targeted by compound 8, its knockdown should render cells more vulnerable to compound 8-mediated PKM2 inhibition since shRNA and compound 8 work synergistically by reducing the intracellular drug target concentration.
Cells were seeded in 96-well plates at 5000 cells/well in DMEM media overnight. Cells were treated with different concentrations of test compound for 48 h at 37 °C in 5% CO2. Cell viability was assayed with the MTS assay (Promega) and trypan blue staining according to the manufacturer’s instructions.

T2 sequence (P30613 1-543 isoform P30613-2, species assumed): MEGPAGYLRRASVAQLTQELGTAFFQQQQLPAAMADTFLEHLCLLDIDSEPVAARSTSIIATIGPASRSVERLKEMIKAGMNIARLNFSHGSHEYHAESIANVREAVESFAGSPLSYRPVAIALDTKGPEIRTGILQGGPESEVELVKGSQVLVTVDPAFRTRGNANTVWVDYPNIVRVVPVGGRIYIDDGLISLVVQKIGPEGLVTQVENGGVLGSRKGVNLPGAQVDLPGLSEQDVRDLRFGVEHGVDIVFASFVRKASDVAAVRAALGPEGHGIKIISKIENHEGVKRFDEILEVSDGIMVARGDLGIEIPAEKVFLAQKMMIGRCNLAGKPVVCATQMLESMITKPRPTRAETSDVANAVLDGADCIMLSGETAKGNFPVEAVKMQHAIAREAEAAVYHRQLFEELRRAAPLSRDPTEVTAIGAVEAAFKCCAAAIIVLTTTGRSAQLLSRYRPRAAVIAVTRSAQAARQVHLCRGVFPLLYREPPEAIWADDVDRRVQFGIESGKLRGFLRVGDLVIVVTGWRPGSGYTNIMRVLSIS
T3 sequence (P14618 whole entry): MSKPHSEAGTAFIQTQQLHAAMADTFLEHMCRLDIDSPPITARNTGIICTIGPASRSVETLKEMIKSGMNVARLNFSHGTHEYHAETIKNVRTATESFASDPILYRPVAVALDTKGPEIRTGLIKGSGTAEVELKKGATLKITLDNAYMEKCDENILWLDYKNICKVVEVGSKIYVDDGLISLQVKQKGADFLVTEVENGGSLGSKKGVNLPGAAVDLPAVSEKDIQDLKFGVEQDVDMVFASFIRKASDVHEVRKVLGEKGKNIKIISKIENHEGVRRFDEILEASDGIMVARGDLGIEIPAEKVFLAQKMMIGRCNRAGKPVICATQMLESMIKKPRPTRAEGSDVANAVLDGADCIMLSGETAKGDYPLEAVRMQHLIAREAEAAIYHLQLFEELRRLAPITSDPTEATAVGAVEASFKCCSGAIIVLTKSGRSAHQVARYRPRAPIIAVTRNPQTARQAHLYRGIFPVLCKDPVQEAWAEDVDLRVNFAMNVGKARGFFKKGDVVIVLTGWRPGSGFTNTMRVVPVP
T1 sequence (P14618 1-531 isoform P14618-2): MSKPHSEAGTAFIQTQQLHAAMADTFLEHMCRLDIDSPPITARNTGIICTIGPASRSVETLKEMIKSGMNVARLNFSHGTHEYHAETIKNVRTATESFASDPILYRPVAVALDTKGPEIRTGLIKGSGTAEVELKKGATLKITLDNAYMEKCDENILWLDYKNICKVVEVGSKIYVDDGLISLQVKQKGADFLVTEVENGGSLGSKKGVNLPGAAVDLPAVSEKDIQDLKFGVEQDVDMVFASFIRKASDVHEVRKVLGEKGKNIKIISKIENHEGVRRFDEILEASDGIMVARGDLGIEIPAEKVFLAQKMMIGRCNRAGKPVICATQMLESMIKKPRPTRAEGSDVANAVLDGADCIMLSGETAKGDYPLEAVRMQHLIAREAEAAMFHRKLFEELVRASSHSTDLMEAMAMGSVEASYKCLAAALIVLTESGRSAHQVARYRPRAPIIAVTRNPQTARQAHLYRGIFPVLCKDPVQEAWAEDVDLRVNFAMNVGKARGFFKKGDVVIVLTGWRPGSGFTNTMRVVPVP

For `CCCN(CCC)P(N)(=O)OCC1=CC(=O)c2ccccc2C1=O` (stereo not drawn) [Compound 8], the IC50 [1] was 10.5 ± 1.52 µM, the IC50 [2] was 20.4 ± 3.54 µM and the “interaction of PKM2 with VDAC3” value [3] was “abolished its interaction with VDAC3”. The PKM2 mitochondrial translocation [4] was “can restrain PKM2 mitochondrial translocation”, the IC50 ([5]; Homo sapiens, NCI-H1299, 48 h) was ~5 µM and the IC50 [5] was 4.75 ± 1.15 µM.
